Results as given in ChEMBL document CHEMBL1134077, “Synthesis of potent and selective dopamine D(4) antagonists as candidate radioligands” (Bioorg Med Chem Lett, 2001).

Legend:
[1] = biological target: 5-hydroxytryptamine receptor 2A (Homo sapiens, UniProt P28223); experiment: Binding affinity to cloned human 5-hydroxytryptamine 2A receptor
[2] = biological target: 5-hydroxytryptamine receptor 6 (Homo sapiens, UniProt P50406); experiment: In vitro binding affinity to human 5-hydroxytryptamine 6 receptor
[3] = biological target: 5-hydroxytryptamine receptor 7 (Homo sapiens, UniProt P34969); experiment: In vitro binding affinity to human 5-hydroxytryptamine 7 receptor
[4] = biological target: T1, D(4) dopamine receptor (Rattus norvegicus, UniProt P30729); experiment: In vitro binding affinity to rat Dopamine receptor D4 measured by displacement of the radioligand [3H]spiperone
T1 sequence (P30729 whole entry): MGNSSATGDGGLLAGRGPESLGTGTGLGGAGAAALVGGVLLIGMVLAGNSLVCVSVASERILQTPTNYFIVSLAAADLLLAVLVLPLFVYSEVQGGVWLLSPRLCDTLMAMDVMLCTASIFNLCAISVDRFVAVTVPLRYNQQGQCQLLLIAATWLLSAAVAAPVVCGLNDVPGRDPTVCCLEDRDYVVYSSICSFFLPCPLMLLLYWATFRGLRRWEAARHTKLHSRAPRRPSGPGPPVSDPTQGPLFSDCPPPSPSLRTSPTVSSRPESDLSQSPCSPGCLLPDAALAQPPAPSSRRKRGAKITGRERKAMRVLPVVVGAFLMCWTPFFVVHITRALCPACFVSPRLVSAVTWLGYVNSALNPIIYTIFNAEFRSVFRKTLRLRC

[5] = Binding affinity to cloned Nicotinic acetylcholine receptors; parameters: species or system Rattus norvegicus

Sequence of 5-hydroxytryptamine receptor 7 (P34969 whole entry): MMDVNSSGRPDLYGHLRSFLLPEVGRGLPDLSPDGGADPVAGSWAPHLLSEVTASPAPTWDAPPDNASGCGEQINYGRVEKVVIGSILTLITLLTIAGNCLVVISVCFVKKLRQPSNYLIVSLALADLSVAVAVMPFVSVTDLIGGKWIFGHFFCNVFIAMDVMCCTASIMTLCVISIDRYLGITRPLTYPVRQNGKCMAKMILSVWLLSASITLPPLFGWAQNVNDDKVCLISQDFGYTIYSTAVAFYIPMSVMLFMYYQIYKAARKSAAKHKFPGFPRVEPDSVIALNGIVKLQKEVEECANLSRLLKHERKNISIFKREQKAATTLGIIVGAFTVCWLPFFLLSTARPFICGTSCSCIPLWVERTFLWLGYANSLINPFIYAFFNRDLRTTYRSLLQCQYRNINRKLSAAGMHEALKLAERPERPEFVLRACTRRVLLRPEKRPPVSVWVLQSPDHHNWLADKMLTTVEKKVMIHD
Sequence of 5-hydroxytryptamine receptor 2A (P28223 whole entry): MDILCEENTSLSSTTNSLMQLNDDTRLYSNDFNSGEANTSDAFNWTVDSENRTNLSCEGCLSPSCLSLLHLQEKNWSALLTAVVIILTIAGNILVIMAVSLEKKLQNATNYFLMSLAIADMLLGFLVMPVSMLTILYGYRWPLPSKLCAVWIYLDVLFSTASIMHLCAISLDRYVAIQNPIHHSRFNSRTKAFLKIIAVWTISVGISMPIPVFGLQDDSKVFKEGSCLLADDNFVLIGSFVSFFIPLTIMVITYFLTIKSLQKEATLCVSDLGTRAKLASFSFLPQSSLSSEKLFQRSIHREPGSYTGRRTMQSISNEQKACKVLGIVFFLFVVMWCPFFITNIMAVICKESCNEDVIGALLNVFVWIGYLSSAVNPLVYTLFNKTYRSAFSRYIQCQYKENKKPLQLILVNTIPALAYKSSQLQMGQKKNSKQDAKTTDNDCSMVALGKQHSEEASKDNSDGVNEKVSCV
Sequence of 5-hydroxytryptamine receptor 6 (P50406 whole entry): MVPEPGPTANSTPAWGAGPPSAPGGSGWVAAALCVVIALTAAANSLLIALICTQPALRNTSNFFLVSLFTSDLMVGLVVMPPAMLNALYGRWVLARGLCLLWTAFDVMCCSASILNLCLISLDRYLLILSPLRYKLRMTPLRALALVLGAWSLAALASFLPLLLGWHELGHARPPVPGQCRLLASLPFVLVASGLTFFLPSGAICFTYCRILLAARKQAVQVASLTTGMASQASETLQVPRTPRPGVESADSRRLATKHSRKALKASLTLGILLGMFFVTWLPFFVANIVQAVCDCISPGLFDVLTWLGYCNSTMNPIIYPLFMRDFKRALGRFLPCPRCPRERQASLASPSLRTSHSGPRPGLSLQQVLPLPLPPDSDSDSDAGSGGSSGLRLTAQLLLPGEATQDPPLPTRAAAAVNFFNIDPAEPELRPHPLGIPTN

| Structure (SMILES) | Ki [1] [nM] | Ki [2] [nM] | Ki [3] [nM] | Ki [4] [nM] | Ki [5] [nM] |
| --- | --- | --- | --- | --- | --- |
| FC(F)(F)c1ccc(N2CCN(Cc3c[nH]c4ncccc34)CC2)cc1 | 2790 | 7110 | 318 | 34.1 |  |
| Clc1ccc(N2CCN(Cc3c[nH]c4ncccc34)CC2)cc1 [L-745870] |  |  |  |  | > 10000 |
